{"source": "patent US10813932B2", "about": "“1-pyrazolyl-3-(4-((2-anilinopyrimidin-4-yl) oxy) napththalen-1-yl) ureas as P38 MAP knase inhibitors” (Respivert Limited, priority 2011, dated 2020)", "key": {"A/J mice": {"system": "A/J mice", "assay": "Cigarette smoke model", "format": "in vivo", "method": "A/J mice (males, 5 weeks old) were exposed to cigarette smoke (4% cigarette smoke, diluted with air) for 30 min/day for 11 days using a Tobacco Smoke Inhalation Experiment System for small animals (Model SIS-CS; Sibata Scientific Technology, Tokyo, Japan). Test substances were administered intra-nasally (35 μL of solution in 50% DMSO/PBS) once daily for 3 days after the final cigarette smoke exposure. At 12 hr after the last dosing, each of the animals was anesthetized, the trachea cannulated and bronchoalveolar lavage fluid (BALF) was collected. The numbers of alveolar macrophages and neutrophils were determined by FACS analysis (EPICS® ALTRA II, Beckman Coulter, Inc., Fullerton, Calif., USA) using anti-mouse MOMA2 antibody (macrophage) or anti-mouse 7/4 antibody (neutrophil). BALF was centrifuged and the supernatant was collected. The level of keratinocyte chemoattractant (KC; CXCL1) in BALF was quantitated using a Quentikine® mouse KC ELISA kit (R&D systems, Inc., Minneapolis, Minn., USA)."}, "Balb/c mice": {"system": "Balb/c mice", "assay": "LPS-induced neutrophil accumulation in mice", "format": "in vivo", "method": "Non-fasted Balb/c mice were dosed by the intra tracheal route with either vehicle, or the test substance at the indicated times (within the range 2-8 hr) before stimulation of the inflammatory response by application of an LPS challenge. At T=0, mice were placed into an exposure chamber and exposed to LPS (7.0 mL, 0.5 mg/mL solution in PBS) for 30 min). After a further 8 hr the animals were anesthetized, their tracheas cannulated and BALF extracted by infusing and then withdrawing from their lungs 1.0 mL of PBS via the tracheal catheter. Total and differential white cell counts in the BALF samples were measured using a Neubaur haemocytometer. Cytospin smears of the BALF samples were prepared by centrifugation at 200 rpm for 5 min at RT and stained using a DiffQuik stain system (Dade Behring). Cells were counted using oil immersion microscopy. Data for neutrophil numbers in BAL are shown as mean±S.E.M. (standard error of the mean). The percentage inhibition of neutrophil accumulation was calculated for each treatment relative to vehicle treatment."}}}
{"smiles": "Cc1ccc(-n2nc(C(C)(C)C)cc2NC(=O)Nc2ccc(Oc3ccnc(Nc4ccccc4)n3)c3ccccc23)cc1", "note": "[Example 1, 1-(3-(tert-Butyl)-1-(p-tolyl)-1H-pyrazol-5-yl)-3-(4-(2-(phenylamino)pyrimidin-4-yloxy)naphthalen-1-yl)urea]", "values": [{"measurement": "cigarette smoke induced CXCL1 (KC) production in BALF", "setting": "A/J mice", "value": "inhibited"}, {"measurement": "macrophage accumulation in BALF induced by cigarette smoke", "setting": "A/J mice", "value": "dose-dependent inhibition"}, {"measurement": "neutrophil accumulation in BALF induced by cigarette smoke", "setting": "A/J mice", "value": "dose-dependent inhibition"}, {"measurement": "LPS-induced neutrophil accumulation", "setting": "Balb/c mice", "value": "dose dependent inhibition"}]}
